Assay results published in patent US6737383B1, “Herbicidal oxadiazolidines” (priority 1999, dated 2004).

Columns and labels:
[1] = test system: corn; test: Test B pre/postemergence corn; type: in vivo, Zea mays
Procedure, shortened: (§1)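 Herbicidal effect was estimated by eye on a ten-point control scale after plants spent twelve to sixteen days in a greenhouse following soil or foliar treatment. Foliar sprays targeted plants at one to four leaves; all doses were formulated in a non-phytotoxic solvent with surfactant.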

[2] = test system: sugar beet; test: Test B pre/postemergence sugar beet; type: in vivo, Beta vulgaris
Procedure, shortened: as §1

[3] = test system: duck salad; test: Test B flood test duck salad; type: in vivo, Heteranthera limosa
Procedure, shortened: (§2)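 Plants were grown to the 2-leaf stage before treatment with test chemical, then held in a greenhouse for twelve to sixteen days. Injury was visually rated against untreated controls on a 0–10 scale, where 0 is no effect and 10 is complete control.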

[4] = test system: soybean; test: Test B pre/postemergence soybean; type: in vivo, Glycine max
Procedure, shortened: as §1

[5] = test system: wild oat; test: Test B pre/postemergence wild oat; type: in vivo, Avena fatua
Procedure, shortened: as §1

[6] = test system: wheat; test: Test B pre/postemergence wheat; type: in vivo, Triticum aestivum
Procedure, shortened: as §1

[7] = test system: purple nutsedge; test: Test B pre/postemergence purple nutsedge; type: in vivo, Cyperus rotundus
Procedure, shortened: as §1

[8] = test system: smallflower flatsedge; test: Test B flood test smallflower flatsedge; type: in vivo, Cyperus difformis
Procedure, shortened: as §2

[9] = test system: crabgrass; test: Test B pre/postemergence crabgrass; type: in vivo, Digitaria sanguinalis
Procedure, shortened: as §1

[10] = test system: bedstraw; test: Test B pre/postemergence bedstraw; type: in vivo, Galium aparine
Procedure, shortened: as §1

[11] = test system: surinam grass; test: Test B pre/postemergence surinam grass; type: in vivo, Brachiaria decumbens
Procedure, shortened: as §1

[12] = test system: rice; test: Test B flood test rice; type: in vivo, Oryza sativa
Procedure, shortened: as §2

[13] = test system: rape; test: Test B pre/postemergence rape; type: in vivo, Brassica napus
Procedure, shortened: as §1

[14] = test system: pigweed; test: Test B pre/postemergence pigweed; type: in vivo, Amaranthus retroflexus
Procedure, shortened: as §1

[15] = test system: velvetleaf; test: Test B pre/postemergence velvetleaf; type: in vivo, Abutilon theophrasti
Procedure, shortened: as §1

[16] = test system: blackgrass; test: Test B pre/postemergence blackgrass; type: in vivo, Alopecurus myosuroides
Procedure, shortened: as §1

[17] = Postemergence, Rate 31 g/ha, visual rating, scale 0 to 10 (0 no effect, 10 complete control)
[18] = Preemergence, Rate 31 g/ha, visual rating, scale 0 to 10 (0 no effect, 10 complete control)
[19] = Preemergence, Rate 62 g/ha, scale of 0 to 10 where 0 is no effect and 10 is complete control
[20] = Preemergence, Rate 250 g/ha, scale of 0 to 10 where 0 is no effect and 10 is complete control
[21] = Rate 62 g/ha, Postemergence, scale 0 to 10 (0 no effect, 10 complete control)
[22] = Rate 125 g/ha, Postemergence, scale of 0 to 10 where 0 is no effect and 10 is complete control
[23] = Rate 250 g/ha, Postemergence, scale of 0 to 10 where 0 is no effect and 10 is complete control
[24] = Rate 31 g/ha, Pre-emergence section (flood test species), scale 0 to 10
[25] = Rate 62 g/ha, headed Pre-emergence (flood test species), scale 0 to 10 (0 no effect, 10 complete control)
[26] = Rate 125 g/ha, Pre-emergence, flood test species, scale 0 to 10 where 0 is no effect and 10 is complete control
[27] = Rate 250 g/ha, Pre-emergence, flood-test species, scale 0 to 10, 0 is no effect, 10 is complete control

SMILES: Cc1cccc(C)c1-n1c(=O)on(C(=O)N(c2ccc(Cl)cc2Cl)C2CCC2)c1=O [Compound 318]
- Corn plant response rating [1, 17]: 0
- Corn plant response rating [1, 18]: 0
- Corn plant response rating [1, 19]: 0
- Corn plant response rating (0 to 10 scale) ([1]; Preemergence, Rate 125 g/ha): 0
- Corn plant response rating [1, 20]: 0
- Corn plant response rating [1, 21]: 0
- Corn plant response rating [1, 22]: 0
- Plant response rating, Corn [1, 23]: 0
- Sugarbeets plant response rating [2, 17]: 0
- Sugarbeets plant response rating [2, 19]: 0
- Sugarbeets plant response rating (0 to 10 scale) ([2]; Preemergence, Rate 125 g/ha): 0
- Sugarbeets plant response rating [2, 20]: 0
- Sugarbeets plant response rating [2, 21]: 0
- Sugarbeets plant response rating [2, 22]: 0
- Plant response rating, Sugarbeets [2, 23]: 0
- Ducksalad plant response rating [3, 24]: 0
- Ducksalad plant response rating [3, 25]: 0
- Ducksalad plant response rating [3, 26]: 0
- Ducksalad plant response rating [3, 27]: 0
- Soybean plant response rating [4, 17]: 0
- Soybean plant response rating [4, 19]: 0
- Soybean plant response rating (0 to 10 scale) ([4]; Preemergence, Rate 125 g/ha): 0
- Soybean plant response rating [4, 20]: 0
- Soybean plant response rating [4, 21]: 0
- Soybean plant response rating [4, 22]: 0
- Plant response rating, Soybean [4, 23]: 1
- Wild oats plant response rating [5, 17]: 0
- Wild oats plant response rating [5, 19]: 0
- Wild oats plant response rating (0 to 10 scale) ([5]; Preemergence, Rate 125 g/ha): 0
- Wild oats plant response rating [5, 20]: 0
- Wild oats plant response rating [5, 21]: 0
- Wild oats plant response rating [5, 22]: 0
- Plant response rating, Wild oats [5, 23]: 0
- Wheat plant response rating [6, 17]: 0
- Wheat plant response rating [6, 19]: 0
- Wheat plant response rating (0 to 10 scale) ([6]; Preemergence, Rate 125 g/ha): 0
- Wheat plant response rating [6, 20]: 0
- Wheat plant response rating [6, 21]: 0
- Wheat plant response rating [6, 22]: 0
- Plant response rating, Wheat [6, 23]: 0
- Nutsedge plant response rating [7, 17]: 0
- Nutsedge plant response rating [7, 19]: 0
- Nutsedge plant response rating (0 to 10 scale) ([7]; Preemergence, Rate 125 g/ha): 0
- Nutsedge plant response rating [7, 21]: 0
- Nutsedge plant response rating [7, 22]: 0
- Plant response rating, Nutsedge [7, 23]: 0
- S. Flatsedge plant response rating [8, 24]: 0
- S. Flatsedge plant response rating [8, 25]: 0
- S. Flatsedge plant response rating [8, 26]: 0
- S. Flatsedge plant response rating [8, 27]: 0
- Crabgrass plant response rating [9, 17]: 0
- Crabgrass plant response rating [9, 18]: 0
- Crabgrass plant response rating [9, 19]: 0
- Crabgrass plant response rating (0 to 10 scale) ([9]; Preemergence, Rate 125 g/ha): 0
- Crabgrass plant response rating [9, 20]: 0
- Crabgrass plant response rating [9, 21]: 0
- Crabgrass plant response rating [9, 22]: 0
- Plant response rating, Crabgrass [9, 23]: 0
- Bedstraw plant response rating [10, 17]: 0
- Bedstraw plant response rating (0 to 10 scale) ([10]; Preemergence, Rate 125 g/ha): 0
- Bedstraw plant response rating [10, 20]: 0
- Bedstraw plant response rating [10, 21]: 0
- Bedstraw plant response rating [10, 22]: 0
- Plant response rating, Bedstraw [10, 23]: 0
- B. signalgrass plant response rating [11, 17]: 0
- B. signalgrass plant response rating [11, 18]: 0
- B. signalgrass plant response rating [11, 19]: 0
- B. signalgrass plant response rating (0 to 10 scale, 0 is no effect, 10 is complete control) ([11]; Preemergence, Rate 125 g/ha): 0
- B. signalgrass plant response rating [11, 20]: 0
- B. signalgrass plant response rating [11, 21]: 0
- B. signalgrass plant response rating [11, 22]: 0
- Plant response rating, B. signalgrass [11, 23]: 0
- Rice plant response rating [12, 24]: 0
- Rice plant response rating [12, 25]: 0
- Rice plant response rating [12, 26]: 0
- Rice plant response rating [12, 27]: 0
- Rape plant response rating [13, 17]: 0
- Rape plant response rating [13, 19]: 0
- Rape plant response rating (0 to 10 scale) ([13]; Preemergence, Rate 125 g/ha): 0
- Rape plant response rating [13, 20]: 0
- Rape plant response rating [13, 21]: 0
- Rape plant response rating [13, 22]: 0
- Plant response rating, Rape [13, 23]: 0
- Redroot pigweed plant response rating [14, 17]: 0
- Redroot pigweed plant response rating [14, 19]: 0
- Redroot pigweed plant response rating (0 to 10 scale) ([14]; Preemergence, Rate 125 g/ha): 0
- Redroot pigweed plant response rating [14, 20]: 0
- Redroot pigweed plant response rating [14, 21]: 0
- Redroot pigweed plant response rating [14, 22]: 0
- Plant response rating, Redroot pigweed [14, 23]: 0
- Velvetleaf plant response rating [15, 17]: 0
- Velvetleaf plant response rating [15, 19]: 0
- Velvetleaf plant response rating (0 to 10 scale) ([15]; Preemergence, Rate 125 g/ha): 0
- Velvetleaf plant response rating [15, 20]: 0
- Velvetleaf plant response rating [15, 21]: 0
- Velvetleaf plant response rating [15, 22]: 0
- Plant response rating, Velvetleaf [15, 23]: 0
- Blackgrass plant response rating [16, 17]: 0
- Blackgrass plant response rating [16, 18]: 0
- Blackgrass plant response rating [16, 19]: 0
- Blackgrass plant response rating (0 to 10 scale) ([16]; Preemergence, Rate 125 g/ha): 0
- Blackgrass plant response rating [16, 20]: 0
- Blackgrass plant response rating [16, 21]: 0
- Blackgrass plant response rating [16, 22]: 0
- Plant response rating, Blackgrass [16, 23]: 0
